In patent publication US20100098654A1:

What was measured:
[1] = tested on: human neuroblastoma cells (HTLA-230); test: Pseudometastatic human neuroblastoma (HTLA-230) xenografted mice, survival; format: in vivo; details: HTLA-230 i.v. in nude mice, 10 mg/kg q2d×5
Procedure: Xenografts were established in mice by injecting human neuroblastoma cells (HTLA-230) intravenously at zero time point.
Four-week-old female athymic nude (nu/nu) mice were purchased from Harlan Laboratories (Harlan Italy-S.Pietro al Natisone, UD). Eight mice/group were injected with the human NB cell line, HTLA-230 (3.5×10^6 cells in 200 μl of HEPES-buffered saline) in the tail vein (i.v.) on day 0. The mice were then randomly assigned to each test group (8 mice per group). […] Control group received HEPES-buffered saline. The mice were monitored routinely for weight loss. Survival times were used as the criteria for determining treatment efficacy.

[2] = tested on: human neuroblastoma cells (GI-LI-N); test: Orthotopic human neuroblastoma (GI-LI-N) xenografted mice; format: in vivo, mouse (human tumor xenograft)
Procedure: Xenograft tumors were established in mice by injecting human neuroblastoma cells (GI-LI-N) in the adrenal gland.
Five-week-old female athymic nude (nu/nu) mice were randomly assigned to each test group (8 mice per group). Eight mice/group were anaesthetised and injected with the human NB cell line, GI-LI-N (1×10^6 cells in 15 μl of HEPES buffer), after laparatomy, in the capsule of the left adrenal gland. Mice were monitored at least two times weekly for evidence of tumor development, quantification of tumor size, and evidence of tumor-associated morbidity. […] Control group received HEPES-buffered saline. The body weight and general physical status of the animals was observed daily and any mouse was terminated when a tumor reached 1000-1200 mm^3. Survival time was used as the criteria for determining treatment efficacy.
Tumors were removed from orthotopic neuroblastoma-bearing mice at day 50. Tumor sections were immunostained for NB84 as a neuroblastoma cell marker, and Ki-67 as a tumor cell proliferation marker. Cell nuclei were stained with DAPI.
Control group received HEPES-buffered saline.

[3] = tested on: human neuroblastoma cells NXS2; test: NXS2 xenografted mice, survival; format: in vivo; details: NXS2 in A/J mice
Procedure: Xenograft tumors were established in immunocompetent A/J mice by injecting […] neuroblastoma cells, NXS2, in the adrenal gland.
The immunocompetent mice were injected with another […] NB cell, NXS2 of 5×10^4 cells or 5×10^5 cells in the left adrenal gland. Tumors were allowed to grow for 2 days and reached the average volume of approximately 200 mm^3. […] Control group received HEPES-buffered saline. Survival time was used as the criteria for determining treatment efficacy.

[4] = GI-LI-N orthotopic (Example 27), 10 mg/kg q2d×5

## CCc1c2c(nc3ccc(OC(=O)N4CCC(N5CCCCC5)CC4)cc13)-c1cc3c(c(=O)n1C2)COC(=O)[C@]3(O)CC [CPT-11]
[1]
  mice surviving: None
[1]; from the cancer injection
  time by which animals died: ≤ 85 days
[2]; [4]
  mice surviving: None
  time by which animals died: ≤ 80 days
[2]; GI-LI-N orthotopic (Example 30), 10 mg/kg/dose
  time by which animals died: ≤ 80 days
[2]; GI-LI-N orthotopic (Example 30), 10 mg/kg/dose day 21, 23, 25, 27, 29
  mice surviving: None
[2]; GI-LI-N orthotopic (Example 30), at MTD (40 mg/kg)
  effect on survival rate: slightly improved survival rate
[3]; 10 mg/kg/dose q2d×5
  mice surviving: None
[3]; MTD (40 mg/kg) q2d×5
  mice surviving: None
